From US10703746B2, “Mutant IDH1 inhibitors useful for treating cancer” (THE UNITED STATES OF AMERICA, AS REPRESENTED BY THE …, priority 2014, dated 2020) come the findings set out here.

One experiment has as its target IDH1 R132H (Homo sapiens, UniProt O75874, R132H). Description: IDH1 R132H enzymatic assay (NADPH depletion coupled to diaphorase/resazurin). Type of experiment: biochemical. To be noted: IDH1 R132H enzymatic inhibition, IC50 class. A general note: The colour change of resazurin is a common sign of viable cells or microbes.
For the next experiment, the target named is IDH1 R132C (Homo sapiens, UniProt O75874, R132C). Briefly: IDH1 R132C enzymatic assay (NADPH depletion coupled to diaphorase/resazurin). Type of experiment: biochemical. To be noted: IDH1 R132C enzymatic inhibition, IC50 class. In short, it runs like this: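 NADPH depletion, read via diaphorase/resazurin coupling, after adding substrate at 0.6 mM α-KG and 0.012 mM NADPH. Beforehand, 0.00032 mg/mL enzyme sat with compound 30 min at room temperature in pH 6.5 potassium phosphate buffer with MgCl2, glycerol and BSA.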
Sequence of IDH1 R132C (O75874 whole entry R132C): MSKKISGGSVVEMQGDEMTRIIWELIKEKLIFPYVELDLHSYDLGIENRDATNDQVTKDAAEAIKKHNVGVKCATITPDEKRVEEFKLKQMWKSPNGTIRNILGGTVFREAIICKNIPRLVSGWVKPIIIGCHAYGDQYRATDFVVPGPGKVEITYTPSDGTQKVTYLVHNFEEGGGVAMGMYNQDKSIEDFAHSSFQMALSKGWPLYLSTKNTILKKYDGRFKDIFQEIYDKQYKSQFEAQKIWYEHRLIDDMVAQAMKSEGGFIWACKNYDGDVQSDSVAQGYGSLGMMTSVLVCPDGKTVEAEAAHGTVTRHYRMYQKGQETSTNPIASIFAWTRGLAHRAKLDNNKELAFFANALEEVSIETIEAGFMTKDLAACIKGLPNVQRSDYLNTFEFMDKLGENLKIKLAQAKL

Broadly, the IC50 is the concentration that inhibits the measured activity by half. Read a high IC50 as a need for much substance.

Sequence of IDH1 R132H (O75874 whole entry R132H): as the sequence (O75874 whole entry R132C) above, with C132H counted along it

Turning to `CCc1cccc(CC)c1-n1c(CC(C)C)c(C(=O)NC[C@H](N)C(=O)O)cc(-c2nc(-c3ccc(Cl)cc3)cs2)c1=O` [Compound 221], the IC50 against IDH1 R132H is 1 to 5 µM; on IDH1 R132C it was 0.3 to 1 µM.
The corresponding values for `CCc1cccc(CC)c1-n1c(C(C)C)c(C(=O)N2CCN[C@@H](C(=O)OC)C2)cc(-c2nc(-c3ccc(Cl)cc3)cs2)c1=O` [Compound 222] are 1 to 5 µM and less than 0.3 µM.
The corresponding values for `CCc1cccc(CC)c1-n1c(C)c(C(=O)N2CCCC(N)C2)cc(-c2nc(-c3ccc(Cl)cc3)cs2)c1=O` (stereo not shown) [Compound 223] are 1 to 5 µM and less than 0.3 µM.
On the same counts, the results for `CCc1cccc(CC)c1-n1c(CC(C)C)c(C(=O)N2CCNCC2)cc(-c2nc(-c3ccc(OC)cc3)c(C)s2)c1=O` [Compound 224] are 0.3 to 1 µM and 0.3 to 1 µM.
For the compound `COc1ccc(OC)c(-n2c3c(cc(-c4nc(-c5ccccc5)cs4)c2=O)C(=O)CC(C)(C)C3)c1` [Compound 225], the IC50 on IDH1 R132H and at IDH1 R132C was 1 to 5 µM each time.
`CCc1cccc(CC)c1-n1c2c(cc(-c3nc(-c4ccccc4F)cs3)c1=O)C(=O)CC(C)(C)C2` [Compound 226]: the IC50 on IDH1 R132H and against IDH1 R132C was 1 to 5 µM each time.
Turning to `CC1(C)CC(=O)c2cc(-c3nc(-c4ccc(Cl)cc4)cs3)c(=O)n(-c3ccccc3C(=O)O)c2C1` [Compound 227], the IC50 at IDH1 R132H and against IDH1 R132C was 5 to 20 µM in each case.
For the compound `CCc1cccc(CC)c1-n1c2c(cc(-c3nc(-c4cccc(C(F)(F)F)c4)cs3)c1=O)C(=O)CC(C)(C)C2` [Compound 228], the half-maximal inhibitory concentration (IC50) at IDH1 R132H and against IDH1 R132C was greater than 20 µM each time.
`CCc1cccc(CC)c1-n1c(C(C)C)c(C(=O)N2CCN[C@@H](CO)C2)cc(-c2nc(-c3ccc(Cl)cc3)cs2)c1=O` [Compound 229]: the IC50 was 0.3 to 1 µM against IDH1 R132H and less than 0.3 µM on IDH1 R132C.
On the same counts, the results for `CCc1cccc(CC)c1-n1c2c(cc(-c3nc(-c4ccccc4C(F)(F)F)cs3)c1=O)C(=O)CC(C)(C)C2` [Compound 230] are 5 to 20 µM and 1 to 5 µM.
The corresponding values for `CCc1cccc(CC)c1-n1c(CC(C)C)c(C(=O)N2CCNCC2)cc(-c2nc(-c3ccc(Cl)cc3)cs2)c1=O` [Compound 231] are less than 0.3 µM and less than 0.3 µM.
The corresponding values for `CCc1cccc(CC)c1-n1c(CC(C)C)c(C(=O)NCC(O)c2ccccc2)cc(-c2nc(-c3ccc(Cl)cc3)cs2)c1=O` (stereo not shown) [Compound 232] are 0.3 to 1 µM and less than 0.3 µM.
For `CCc1cccc(CC)c1-n1c2c(cc(-c3nc(-c4ccc(C)cc4)cs3)c1=O)C(=O)CC(C)(C)C2` [Compound 233], the IC50 against IDH1 R132H and against IDH1 R132C was 0.3 to 1 µM in each case.
In the case of `CCc1cccc(CC)c1-n1c(C(C)C)c(C(=O)N2CCN[C@@H](C)C2)cc(-c2nc(-c3ccc(Cl)cc3)cs2)c1=O` [Compound 234], the IC50 against IDH1 R132H was in the range of 1 to 5 µM; at IDH1 R132C, 0.3 to 1 µM.
On the same counts, the results for `CCc1cccc(CC)c1-n1c(CC(C)C)c(C(=O)N2CCNCC2)cc(-c2nc(-c3ccc(C#N)cc3)c(C)s2)c1=O` [Compound 235] are less than 0.3 µM and less than 0.3 µM.
On the same counts, the results for `CCc1cccc(CC)c1-n1c(CC)c(C(=O)O)cc(-c2nc(-c3ccc(Cl)cc3)cs2)c1=O` [Compound 236] are 1 to 5 µM and 5 to 20 µM.
Turning to `CCc1cccc(CC)c1-n1c(C)c(C(=O)NC2CCC(N)CC2)cc(-c2nc(-c3ccc(Cl)cc3)cs2)c1=O` (stereo not shown) [Compound 237], the IC50 on IDH1 R132H and against IDH1 R132C was 5 to 20 µM throughout.
Consider `CCc1cccc(CC)c1-n1c(CC(C)C)c(C(=O)N2CCNCC2)cc(-c2nc(-c3ccc(CN4CCOCC4)cc3)c(C)s2)c1=O` [Compound 238], for which the IC50 against IDH1 R132H and against IDH1 R132C was 5 to 20 µM each time.
`CCc1cccc(CC)c1-n1c2c(cc(-c3nc(-c4cnn(C)c4)c(C)s3)c1=O)C(=O)CC(C)(C)C2` [Compound 239]: the IC50 against IDH1 R132H and against IDH1 R132C was 1 to 5 µM throughout.
Take `CCc1cccc(CC)c1-n1c2c(cc(-c3nc(-c4cccc(C)c4)cs3)c1=O)C(=O)CC(C)(C)C2` [Compound 240]: the IC50 at IDH1 R132H was 5 to 20 µM; on IDH1 R132C, 1 to 5 µM.
Regarding `CC1(C)CC(=O)c2cc(-c3nc(-c4ccc(Cl)cc4)cs3)c(=O)n(-c3ccccc3C(C)(C)C)c2C1` [Compound 241], the IC50 at IDH1 R132H was 1 to 5 µM; against IDH1 R132C, 0.3 to 1 µM.
On to `CCc1cccc(CC)c1-n1c(C)c(C(=O)N2CC(O)C2)cc(-c2nc(-c3ccc(Cl)cc3)cs2)c1=O` [Compound 242], for which the IC50 at IDH1 R132H and at IDH1 R132C was 1 to 5 µM each time.
In the case of `CCc1cccc(CC)c1-n1c(CC(C)C)c(C(=O)N2CCCC2CO)cc(-c2nc(-c3ccc(Cl)cc3)cs2)c1=O` (stereo not shown) [Compound 243], the IC50 at IDH1 R132H and against IDH1 R132C was 1 to 5 µM each time.
Turning to `COc1ccc(OC)c(-n2c3c(cc(-c4nc(-c5ccc(Cl)cc5)cs4)c2=O)C(=O)NCC3)c1` [Compound 244], the IC50 on IDH1 R132H and on IDH1 R132C was 1 to 5 µM in each case.
Regarding `CCc1cccc(CC)c1-n1c(C)c(C(=O)N2CCC(N)C2)cc(-c2nc(-c3ccc(Cl)cc3)cs2)c1=O` (stereo not shown) [Compound 245], the IC50 against IDH1 R132H and against IDH1 R132C was 1 to 5 µM in each case.
Consider `Cc1cccc(O)c1-n1c2c(cc(-c3nc(-c4ccc(Cl)cc4)cs3)c1=O)C(=O)CC(C)(C)C2` [Compound 246], for which the IC50 on IDH1 R132H and at IDH1 R132C was 1 to 5 µM throughout.
On to `CCc1cccc(CC)c1-n1c(C(C)C)c(C(=O)N2CCN[C@H](C(=O)OC)C2)cc(-c2nc(-c3ccc(Cl)cc3)cs2)c1=O` [Compound 247], for which the IC50 at IDH1 R132H fell in the range of 5 to 20 µM; against IDH1 R132C, 1 to 5 µM.
On the same counts, the results for `CC1(C)CC(=O)c2cc(-c3nc(-c4ccc(Cl)cc4)cs3)c(=O)n(-c3ccccc3N3CCOCC3)c2C1` [Compound 248] are 1 to 5 µM and 0.3 to 1 µM.
The corresponding values for `CCc1cccc(CC)c1-n1c2c(cc(-c3nc(-c4cccc(O)c4)cs3)c1=O)C(=O)CC(C)(C)C2` [Compound 249] are 1 to 5 µM and 1 to 5 µM.
On the same counts, the results for `CCc1cccc(CC)c1-n1c(C)c(C(=O)N2CCCC(O)C2)cc(-c2nc(-c3ccc(Cl)cc3)cs2)c1=O` (stereo not shown) [Compound 250] are 1 to 5 µM and 1 to 5 µM.
Regarding `CCc1cccc(CC)c1-n1c2c(cc(-c3nc(-c4ccc(Cl)cc4)c(C)s3)c1=O)C(=O)CC(C)(C)C2` [Compound 251], the figures for the IC50 at IDH1 R132H and at IDH1 R132C were 0.3 to 1 µM and less than 0.3 µM, respectively.
On to `CCc1cccc(CC)c1-n1c(C(C)C)c(C(=O)N2CCN[C@H](CO)C2)cc(-c2nc(-c3ccc(Cl)cc3)cs2)c1=O` [Compound 252], for which the IC50 on IDH1 R132H and on IDH1 R132C was 0.3 to 1 µM throughout.
For `COc1ccc(OC)c(-n2c3c(cc(-c4nc(-c5ccc(Cl)cc5)cs4)c2=O)C(=O)CN(C)C3)c1` [Compound 253], the IC50 on IDH1 R132H and on IDH1 R132C was 1 to 5 µM each time.
With `COC(=O)c1ccccc1-n1c2c(cc(-c3nc(-c4ccc(Cl)cc4)cs3)c1=O)C(=O)CC(C)(C)C2` [Compound 254], the IC50 against IDH1 R132H and against IDH1 R132C was 0.3 to 1 µM in each case.
For the compound `CC1(C)CC(=O)c2cc(-c3nc(-c4ccncc4)cs3)c(=O)n(-c3ccccc3C(F)(F)F)c2C1` [Compound 255], the IC50 against IDH1 R132H and against IDH1 R132C was 1 to 5 µM throughout.
As for `CC(C)COc1ccccc1-n1c2c(cc(-c3nc(-c4ccc(Cl)cc4)cs3)c1=O)C(=O)CC(C)(C)C2` [Compound 256], the IC50 against IDH1 R132H and against IDH1 R132C was 0.3 to 1 µM in each case.
As to `CCc1cccc(CC)c1-n1c(CC(C)C)c(C(=O)N2CCNCC2)cc(-c2nc(-c3ccc(OC(C)C)cc3)c(C)s2)c1=O` [Compound 257], the results for the IC50 on IDH1 R132H and at IDH1 R132C were 0.3 to 1 µM and less than 0.3 µM, respectively.
With `CCc1cccc(CC)c1-n1c(C)c(C(=O)N2CCCC2C(=O)O)cc(-c2nc(-c3ccc(Cl)cc3)cs2)c1=O` (stereo not shown) [Compound 258], the IC50 at IDH1 R132H and against IDH1 R132C was 1 to 5 µM in each case.
For the compound `CCc1cccc(CC)c1-n1c(C)c(C(=O)N2CCCC(C(=O)O)C2)cc(-c2nc(-c3ccc(Cl)cc3)cs2)c1=O` (stereo not shown) [Compound 259], the IC50 against IDH1 R132H and against IDH1 R132C was 5 to 20 µM each time.
As for `CCc1cccc(CC)c1-n1c(C)c(C(=O)NCC(N)=O)cc(-c2nc(-c3ccc(Cl)cc3)cs2)c1=O` [Compound 260], the IC50 at IDH1 R132H and at IDH1 R132C was 1 to 5 µM throughout.
In the case of `COc1ccc(OC)c(-n2c3c(cc(-n4cc(-c5ccccc5)nn4)c2=O)C(=O)CC(C)(C)C3)c1` [Compound 261], the IC50 at IDH1 R132H and against IDH1 R132C was 5 to 20 µM each time.
Consider `CCc1cccc(CC)c1-n1c(C)c(C(=O)NCCCO)cc(-c2nc(-c3ccc(Cl)cc3)cs2)c1=O` [Compound 262], for which the IC50 was 1 to 5 µM at IDH1 R132H and 0.3 to 1 µM at IDH1 R132C.
The corresponding values for `CCc1cccc(CC)c1-n1c(CC(C)C)c(C(=O)NC2CCNCC2)cc(-c2nc(-c3ccc(Cl)cc3)cs2)c1=O` [Compound 263] are 0.3 to 1 µM and less than 0.3 µM.
The corresponding values for `CCc1cccc(CC)c1-n1c(C(C)C)c(C(=O)N2CCN[C@H](C(=O)O)C2)cc(-c2nc(-c3ccc(Cl)cc3)cs2)c1=O` [Compound 264] are 0.3 to 1 µM and less than 0.3 µM.
The corresponding values for `CCc1cccc(CC)c1-n1c(C)c(C(=O)NC2CC2)cc(-c2nc(-c3ccc(Cl)cc3)cs2)c1=O` [Compound 265] are 1 to 5 µM and 1 to 5 µM.
As for `COc1ccc(OC)c(-n2c3c(cc(-c4ncc(-c5ccc(Cl)cc5)s4)c2=O)C(=O)CC(C)(C)C3)c1` [Compound 266], the IC50 against IDH1 R132H and against IDH1 R132C was greater than 20 µM throughout.
On to `CCc1cccc(CC)c1-n1c(CC(C)C)c(C(=O)N2CCNC[C@H]2C)cc(-c2nc(-c3ccc(Cl)cc3)cs2)c1=O` [Compound 267], for which the IC50 on IDH1 R132H is 0.3 to 1 µM; at IDH1 R132C, less than 0.3 µM.
